Data on four compounds can be found in paper PMC10852989, “Combining cisplatin and a STING agonist into one molecule for metalloimmunotherapy of cancer” (National Science Review, 2024).

In general, IC50 refers to the point on the concentration scale where inhibition reaches its midpoint.

One data set concerns HK-2 cells. Put plainly: 72 h MTT cytotoxicity, HK-2. The format is cell-based. The method, then: (§1) Cytotoxicity. Tumor cells were cultured overnight after inoculation in RPMI-1640 medium or DMEM supplemented with 10% FBS. All cultures were maintained in an incubator in a highly humidified atmosphere of 95% air with 5% CO2 at 37 °C. Growth inhibition was measured with an MTT assay. Briefly, 2800–7000 cells per well in culture medium (100 μL) were plated in 96-well plates (Corning). The cells were treated in triplicate with different concentrations of complexes at 37 ℃ for 72 h. Stock solutions of CDDP and oxoplatin were prepared in PBS, while stock solutions of conjugates I and II and the ligand MSA-2 were prepared in DMSO. The stock solutions were diluted in complete medium (DMSO < 0.5%). An aliquot of MTT solution (40 μL, 2.5 mg·mL^–1) in PBS buffer was added to each well and incubated for 4 h. The supernatant was removed and DMSO (150 μL) was added to solubilize the formazan crystals. The amount of formazan was determined using a microplate reader at 570 nm after the plates were shaken for 30 min. The optical density (OD) was used to calculate the percentage of viable cells relative to untreated control values. Background readings for MTT incubated in cell-free medium were subtracted from each value before calculation. […] The mean IC50 values were calculated using data from three replicates.

The test system of a further data set is Caov3 cells. Put plainly: 72 h MTT cytotoxicity, Caov3. The format is cell-based, human. The method, then:
as §1

Data set [1] relates to PANC-1 cells. Nature of the data set: 72 h MTT cytotoxicity, PANC-1. The class given is cell-based, human. The method, then: as §1
A further data set deals with BxPC3 cells. Put plainly: 72 h MTT cytotoxicity, BxPC3. The class given is cell-based, human. As for the experimental part: as §1
The test system of the next data set is Pan02 cells. Put plainly: 72 h MTT cytotoxicity, Pan02. The format is cell-based, mouse. The method, then: as §1
Another data set deals with MCF-7 cells. Put plainly: 72 h MTT cytotoxicity, MCF-7. The format is cell-based, human. As for the experimental part:
as §1

Data set [2] has as its system PANC-1 cells. Nature of the data set: cellular uptake of Pt by ICP-MS, PANC-1. The class given is cell-based, human. Conditions: PANC-1 cells, 6 h incubation, ICP-MS. As for the experimental part:
Cellular uptake. All incubations were carried out in the dark. After the designated incubation period, the medium was removed, and the cells were harvested with trypsin and rinsed twice with PBS (1×, 20 mM, pH 7.4), followed by digestion and ICP-MS.
Cancer cells were seeded in a 6-well plate at a density of 5×10^5 cells per well. After incubation for 24 h, the cells were treated with each complex for 6 h.
Cancer cells preincubated with metabolic inhibitor (MIs) were also evaluated. These cells were preincubated with 2-deoxy-D-glucose and oligomycin (50 mM and 5 μM, respectively, 1 h) or NH4Cl (50 mM, 1 h) at 37 ℃ followed by incubation with DMEM containing CDDP, I or II at 37 ℃ for 6 h.
Digestion. Cell pellets were collected by centrifugation and then digested with nitric acid (100 µL) for 2 h at 95 °C, followed by the addition of H2O2 (50 µL) at 95 °C for 0.5 h. HCl (100 µL) was added and kept at 95 °C until the total volume was less than 20 μL. Water was then added to dilute the solution to 1 mL, and the final Pt content was determined by ICP-MS.

For data set [3], the system named is BMDCs cultured with Pan02 cell CM. Nature of the data set: IFN-β ELISA of BMDCs incubated with conditioned medium of drug-treated Pan02 cells. Conditions: Pan02 treated 48 h at 5 μM (Pt-E-I 20 μM); BMDCs 50% CM, 18 h. The class given is cell-based, mouse. As for the experimental part: (§2) ELISA. Bone marrow-derived dendritic cells (BMDCs) were prepared according to the following method. Briefly, femurs and tibias were removed from 4-6 week-old C57BL/6 mice, and the bone marrow cells were isolated. The bone marrow cells were incubated in T cell medium [RPMI-1640 medium (with GlutaMAX), supplemented with 10% FBS, 1% HEPES, 1% NEAA, 1% sodium pyruvate, and 0.1% βME] containing 20 ng/mL GM-CSF for 6 days after erythrocyte lysis, during which time half of the medium was replaced with fresh T cell medium once and the cytokines were supplemented. Then, the BMDCs were harvested on day 7 for further study.
Pan02 tumor cells were treated with various drugs at a concentration of 5 μM for 48 h, and then the drug-pretreated tumor cell supernatant was obtained by centrifugation at a speed of 12000 rpm/min for 5 min and used as conditioned media (CM) subsequently.
(§3) BMDCs were cultured with 50% CM plus 50% fresh medium for 18 h. In addition, BMDCs were cultured with fresh medium containing different complexes or mixtures (15 μM CDDP and I, a mixture of I and 8 equiv. AsA, and equal AsA). Then, all the BMDC supernatant was collected and centrifuged for subsequent cytokine analysis using ELISA kits, which were performed according to the manufacturer’s instructions.
For orientation: ELISA stands for enzyme-linked immunosorbent assay.

A further data set deals with Pan02 tumors. Nature of the data set: in vivo antitumor activity, C57BL/6 mice bearing Pan02 tumors. The arrangement: species or system mouse. Conditions: C57BL/6 mice, Pan02 tumors, 10.0 μmol/kg every 2 days for 16 days, intravenous. The method, then:
In vivo antitumor activity. Female C57BL/6 mice (6–8 weeks old) were subcutaneously implanted with pan02 cells (2 × 10^6) in the right flank. Once the tumor volume reached approximately 60 mm^3, the mice were assigned to 4 groups at random (n = 5–8) and received treatment with PBS, CDDP (10.0 μmol/kg), I (10.0 μmol/kg), or a mixture of CDDP (10.0 μmol/kg) and MSA-2 (10.0 μmol/kg). The mice received 9 treatments. Changes in body weight and tumor volume were recorded. All the experimental procedures utilizing mice were performed in accordance with the Guidelines for Care and Use of Laboratory Animals of Nanjing University and experiments were approved by the Institutional Animal Care and Use Committee of Nanjing University (IACUC-2101001, SL-019-00).

The nature of data set [4]: H&E histology of major organs after treatment. Conditions: C57BL/6 mice after treatment, 10.0 μmol/kg. The format is in vivo, mouse. The method, then:
Hematoxylin and eosin staining. Tissue samples were subjected to histopathological examination using hematoxylin and eosin (H&E) staining. Mouse organs (heart, liver, spleen, lungs and kidneys) were collected in 4% paraformaldehyde for proper fixation and then embedded in paraffin using a tissue embedding machine. Sections were prepared in an orderly manner by dewaxing, dehydration, and H&E staining. The tissue morphology was observed under a fluorescence microscope (Olympus BX41, Japan).

In data set [5] the test system is cancer cell lines (MCF-7, Caov3, PANC-1, BxPC3, Pan02). Nature of the data set: 72 h MTT cytotoxicity, panel of cancer cell lines. The format is cell-based. Conditions: read-out: IC50 in these cancer cell lines. As for the experimental part:
as §1

In another data set the test system is STING pathway in BMDCs. Nature of the data set: IFN-β and IL-6 ELISA in supernatants of BMDCs treated with complexes. The format is cell-based, mouse. Conditions: 18 h, ELISA, 15 μM. As for the experimental part:
as §2, §3

Data set [6] can be described thus: octanol-water partition coefficient, shake-flask, ICP-MS. The class given is physicochemical. Conditions: n-octanol / phosphate buffer 10 mM pH 7.4, room temperature. As for the experimental part:
Lipid-water partition coefficient. The shake-flask method was used to measure the partition coefficients of CDDP, I and II. Briefly, a mixture containing equal volumes of n-octanol and phosphate buffer (10 mM, pH 7.4) was shaken on a mechanical shaker at room temperature for 24 h. Complexes (10 mM) in phosphate buffer (presaturated with n-octanol) were mixed with an equal volume of n-octanol (presaturated with phosphate buffer), and the mixture was shaken for 24 h at room temperature. Centrifugation was carried out at 2500 rpm for 30 min to separate the two phases. The aqueous layer was carefully separated, and the Pt content in the initial and final aqueous phases was analyzed by inductively coupled plasma mass spectrometry (ICP-MS). The log PO/W was measured using the following equation: log PO/W = log [(Ptinitial ‒ Ptfinal)/Ptfinal].

A short description of data set [7]: reduction by ascorbic acid (AsA) followed by 1H-/195Pt-NMR. The format is physicochemical. Conditions: 20 mM, 8 equiv. AsA, 5:1 d6-DMSO:D2O, 37 °C, dark. As for the experimental part: Reduction of I and II. Samples were prepared by reacting I or II (20 mM) with 8 equiv. AsA in 5:1 d6-DMSO:D2O solutions. The time course of the reaction was monitored by ^1H-NMR and ^195Pt-NMR after incubation of the samples were incubated at 37 °C for 0, 3, 6, 12, 24, 36, 48, 60, 72, 84, 96, or 120 h in the dark.

Read-outs that look alike come from different tables or passages of the source. A value given as a limit tells only on which side of the number the result lay.

In the case of `[NH2][Pt]([NH2])([Cl])[Cl]` [CDDP, cisplatin], the IC50 in the data set on HK-2 cells (human normal kidney cell line) amounted to 8.2 ± 0.5 µM; with Caov3 cells, 26.8 ± 2.2 µM; with PANC-1 cells [1], 11.1 ± 1.3 µM; in the data set on BxPC3 cells, 1.6 ± 0.1 µM; in the data set on Pan02 cells, 8.3 ± 0.6 µM; in the data set with MCF-7 cells, 5.4 ± 0.3 µM. For the same compound, in the data set with PANC-1 cells [2], the “cellular Pt content” value came to 1.7 ng Pt/mg protein. The “IFN-β secretion by BMDCs incubated with treated Pan02 cell CM” value in data set [3] was “slightly increased”. This compound also gave a tumor volume with Pan02 tumors of 200.2 ± 20.6 mm^3. The “histological findings in major organs” value in data set [4] is “substantial blood cell stasis in the liver blood sinuses and thickening of the alveolar wall as well as large infiltrates of inflammatory cells in the trachea and bronchus”.
`N.N.[Cl-].[Cl-].[OH-].[OH-].[Pt+4]` [Oxoplatin, Cis-diamminedichloro-trans-dihydroxyplatinum]: the IC50 in the data set with HK-2 cells (human normal kidney cell line) was 38.7 ± 4.1 µM; with Caov3 cells, more than 50 µM; with PANC-1 cells [1] it was more than 50 µM; in the data set with BxPC3 cells it was more than 50 µM; in the data set on Pan02 cells, more than 50 µM; with MCF-7 cells, 8.2 ± 0.7 µM.
For the compound `COc1cc2cc(C(=O)CCC(=O)O)sc2cc1OC` [MSA-2], the IC50 was more than 50 µM with HK-2 cells (HK-2, human normal kidney cell line); more than 50 µM in the data set on Caov3 cells (Homo sapiens, Caov-3); more than 50 µM in the data set with PANC-1 cells [1] (Homo sapiens, PANC-1); more than 50 µM with BxPC3 cells (Homo sapiens, BXPC-3); more than 50 µM with Pan02 cells (Mus musculus, Pan02); more than 50 µM in the data set on MCF-7 cells (Homo sapiens, MCF7). For the same compound, in [5], the concentration for half-maximal inhibition (IC50) is more than 50 µM. Moreover, the “IFN-β secretion by BMDCs” value in the data set with STING pathway in BMDCs is “robust”. Also, the “IL-6 secretion by BMDCs” value in the data set on STING pathway in BMDCs is on record as “robust”. In data set [3], the “IFN-β secretion by BMDCs incubated with treated Pan02 cell CM” value is on record as “moderate”.
Consider `COc1cc2cc(C(=O)CCC(=O)[O][Pt]([NH2])([NH2])([Cl])([Cl])[O]C(=O)CCC(=O)c3cc4cc(OC)c(OC)cc4s3)sc2cc1OC` [conjugate II], for which the “octanol-water partition coefficient (logPo/w)” value in [6] came to 2.1. Also, the “time at which reduction by AsA finished” value in [7] is reported as 120 h. Also, the half-inhibitory concentration (IC50) is 3.6 ± 1.2 µM in the data set on HK-2 cells (human normal kidney cell line); 5.3 ± 0.4 µM with Caov3 cells; 6.9 ± 0.9 µM with PANC-1 cells [1]; 4.9 ± 0.8 µM with BxPC3 cells; 8.4 ± 0.7 µM in the data set on Pan02 cells; more than 64 µM with MCF-7 cells. The “cellular Pt content” value in the data set with PANC-1 cells [2] worked out at 2.3 ng Pt/mg protein.
